Source: patent publication US9650340B2, “5-fluoro-N-(pyridin-2-yl)pyridin-2-amine derivatives containing a sulfoximine group” (BAYER PHARMA AKTIENGESELLSCHAFT, priority 2012, dated 2017)
≈ marks a conversion by molar mass, not a printed value. Where two headings read alike, the source gives them in different places.

What was measured:
[1] = test system: A2780, human ovarian carcinoma cells; test: Proliferation assay, A2780 (crystal violet); type: cell-based; conditions: A2780, 4 days, read-out: Inhibition of A2780 cell proliferation IC50
Method: Cultivated tumour cells (HeLa, human cervical tumour cells, ATCC CCL-2; NCI-H460, human non-small cell lung carcinoma cells, ATCC HTB-177; A2780, human ovarian carcinoma cells, ECACC #93112519; DU 145, hormone-independent human prostate carcinoma cells, ATCC HTB-81; HeLa-MaTu-ADR, multidrug-resistant human cervical carcinoma cells, EPO-GmbH Berlin; Caco-2, human colorectal carcinoma cells, ATCC HTB-37; B16F10, mouse melanoma cells, ATCC CRL-6475) were plated at a density of 5,000 cells/well (DU145, HeLa-MaTu-ADR), 3,000 cells/well (NCI-H460, HeLa), 2,500 cells/well (A2780), 1,500 cells/well (Caco-2), or 1,000 cells/well (B16F10) in a 96-well multititer plate in 200 μL of their respective growth medium supplemented 10% fetal calf serum. After 24 hours, the cells of one plate (zero-point plate) were stained with crystal violet (see below), while the medium of the other plates was replaced by fresh culture medium (200 μl), to which the test substances were added in various concentrations (0 μM, as well as in the range of 0.001-10 μM; the final concentration of the solvent dimethyl sulfoxide was 0.5%). The cells were incubated for 4 days in the presence of test substances. Cell proliferation was determined by staining the cells with crystal violet: the cells were fixed by adding 20 μl/measuring point of an 11% glutaric aldehyde solution for 15 minutes at room temperature. After three washing cycles of the fixed cells with water, the plates were dried at room temperature. The cells were stained by adding 100 μl/measuring point of a 0.1% crystal violet solution (pH 3.0). After three washing cycles of the stained cells with water, the plates were dried at room temperature. The dye was dissolved by adding 100 μl/measuring point of a 10% acetic acid solution. The extinction was determined by photometry at a wavelength of 595 nm. The change of cell number, in percent, was calculated by normalization of the measured values to the extinction values of the zero-point plate (=0%) and the extinction of the untreated (0 μm) cells (=100%). The IC50 values (inhibitory concentration at 50% of maximal effect) were determined by means of a 4 parameter fit. Non-adherent MOLM-13 human acute myeloid leukemia cells (DSMZ ACC 554) were seeded at a density of 5,000 cells/well in a 96-well multititer plate in 100 μL of growth medium supplemented 10% fetal calf serum. After 24 hours, cell viability of one plate (zero-point plate) was determined with the Cell Titre-Glo Luminescent Cell Viability Assay (Promega), while 50 μL of test compound containing medium was added to the wells of the other plates (final concentrations in the range of 0.001-10 μM and DMSO controls; the final concentration of the solvent dimethyl sulfoxide was 0.5%). Cell viability was assessed after 72-hour exposure with the Cell Titre-Glo Luminescent Cell Viability Assay (Promega).

[2] = Equilibrium shake flask solubility assay, thermodynamic solubility in citrate buffer pH 4; type: physicochemical; conditions: citrate buffer pH 4, 24 h, room temperature; for solubility at 24 h: citrate buffer, pH 4, aqueous buffer, thermodynamic from solid, read-out: Solubility in aqueous Citrate buffer pH4
Method: 4b) Thermodynamic Solubility in Citrate Buffer pH 4
Thermodynamic solubility was determined by an equilibrium shake flask method [Literature: Edward H. Kerns and Li Di (2008) Solubility Methods in: Drug-like Properties: Concepts, Structure Design and Methods, p276-286. Burlington, Mass.: Academic Press].
A saturated solution of the drug was prepared and the solution was mixed for 24 h to ensure that equilibrium has been reached. The solution was centrifuged to remove the insoluble fraction and the concentration of the compound in solution was determined using a standard calibration curve.
To prepare the sample, 1.5 mg solid compound was weighed in a 4 ml glass vial. 1 ml Citrate buffer pH 4 was added. The suspension was put on a stirrer and mixed for 24 hrs at room temperature. The solution was centrifuged afterwards. To prepare the sample for the standard calibration, 0.6 mg solid sample was dissolved in 19 ml acetonitrile/water 1:1. After sonification the solution was filled up with acetonitrile/water 1:1 to 20 ml.
Sample and standards were quantified by HPLC with UV-detection. For each sample two injection volumes (5 and 50 μl) in triplicates were made. Three injection volumes (5 μl, 10 μl and 20 μl) were made for the standard.
The areas of sample- and standard injections as well as the calculation of the solubility value (in mg/l) were determined by using HPLC software (Waters Empower 2 FR).

[3] = Caco-2 permeation assay; type: in vitro ADME, human; conditions: human; for Papp A→B at 2 h, 2 µM / Papp B→A at 2 h, 2 µM: Caco-2, pH 7.2, Caco-2, 2 μM test compound; for Papp A→B at 2 h, 2 µM: apical to basolateral, read-out: Papp A-B (Mari); for Papp B→A at 2 h, 2 µM: basolateral to apical, read-out: Papp B-A (Mari); for efflux ratio at 2 h, 2 µM: Caco-2, pH 7.2, Caco-2, 2 μM, Papp B-A / Papp A-B
Method: 5. Caco-2 Permeation Assay:
Caco-2 cells (purchased from DSMZ Braunschweig, Germany) were seeded at a density of 4.5×10^4 cells per well on 24 well insert plates, 0.4 μm pore size, and grown for 15 days in DMEM medium supplemented with 10% fetal bovine serum, 1% GlutaMAX (100×, GIBCO), 100 U/mL penicillin, 100 μg/mL streptomycin (GIBCO) and 1% non essential amino acids (100 ×). Cells were maintained at 37° C. in a humified 5% CO2 atmosphere. Medium was changed every 2-3 day. Before running the permeation assay, the culture medium was replaced by a FCS—free hepes-carbonate transport buffer (pH 7.2). For assessment of monolayer integrity the transepithelial electrical resistance (TEER) was measured. Test compounds were predissolved in DMSO and added either to the apical or basolateral compartment in final concentration of 2 μM in transport buffer. Before and after 2 h incubation at 37° C. samples were taken from both compartments. Analysis of compound content was done after precipitation with methanol by LC/MS/MS analysis. Permeability (Papp) was calculated in the apical to basolateral (A→B) and basolateral to apical (B→A) directions. The apparent permeability was calculated using following equation: Papp=(Vr/Po)(1/S)(P2/t)
Where Vr is the volume of medium in the receiver chamber, Po is the measured peak area or height of the test drug in the donor chamber at t=o, S the surface area of the monolayer, P2 is the measured peak area of the test drug in the acceptor chamber after 2 h of incubation, and t is the incubation time. The efflux ratio basolateral (B) to apical (A) was calculated by dividing the Papp B-A by the Papp A-B. In addition the compound recovery was calculated. The following reference compounds were used for the classification of the permeability class: Antipyrine, Pyrazosin, Verapamil, Fluvastatin, Cimetidine, Ranitidine, Atenolol, Sulfasalazine.

## COc1cc(CS(C)(=N)=O)cc(Nc2cc(-c3ccc(F)cc3OC)c(F)cn2)n1 (racemic) [Example 6, (rac)-5-Fluoro-4-(4-fluoro-2-methoxyphenyl)-N-{6-methoxy-4-[(S-methylsulfonimidoyl)methyl]pyridin-2-yl}pyridin-2-amine]
[1]; Homo sapiens, A2780, 96 h
  IC50: 11 nM

## COc1cc(F)ccc1-c1cc(Nc2cc(CS(C)(=N)=O)cc(Cl)n2)ncc1F (racemic) [Example 7, (rac)-N-{6-Chloro-4-[(S-methylsulfonimidoyl)methyl]pyridin-2-yl}-5-fluoro-4-(4-fluoro-2-methoxyphenyl)pyridin-2-amine]
[1]; Homo sapiens, A2780, 96 h
  IC50: 27 nM

## COc1cc(F)ccc1-c1cc(Nc2cc(CS(=N)(=O)CCN)ccn2)ncc1F (racemic) [Example 9, (rac)-N-(4-{[S-(2-Aminoethyl)sulfonimidoyl]methyl}pyridin-2-yl)-5-fluoro-4-(4-fluoro-2-methoxyphenyl)pyridin-2-amine]
[2]
  solubility at 24 h: 660 µg/mL (≈ 1520 µM)
[1]; Homo sapiens, A2780, 96 h
  IC50: 210 nM

## CCOC(=O)N=S(C)(=O)Cc1ccnc(Nc2cc(-c3ccc(F)cc3OC)c(F)cn2)c1 (racemic) [Example 11, (rac)-Ethyl{[(2-{[5-fluoro-4-(4-fluoro-2-methoxyphenyl)pyridin-2-yl]amino}pyridin-4-yl)methyl](methyl)oxido-λ^6-sulfanylidene}carbamate]
[2]
  solubility at 24 h: 185 µg/mL (≈ 388 µM)
[1]; Homo sapiens, A2780, 96 h
  IC50: 23 nM

## CCNC(=O)N=S(C)(=O)Cc1ccnc(Nc2cc(-c3ccc(F)cc3OC)c(F)cn2)c1 (racemic) [Example 12, (rac)-1-Ethyl-3-{[(2-{[5-fluoro-4-(4-fluoro-2-methoxyphenyl)pyridin-2-yl]amino}pyridin-4-yl)methyl](methyl)oxido-λ^6-sulfanylidene}urea]
[2]
  solubility at 24 h: 34 µg/mL (≈ 71.5 µM)
[1]; Homo sapiens, A2780, 96 h
  IC50: 26 nM

## COc1cc(F)ccc1-c1cc(Nc2cc(CS(C)(=O)=NC(C)=O)ccn2)ncc1F (racemic) [Example 13, (rac)-N-{[(2-{[5-Fluoro-4-(4-fluoro-2-methoxyphenyl)pyridin-2-yl]amino}pyridin-4-yl)methyl](methyl)oxido-λ^6-sulfanylidene}acetamide]
[1]; Homo sapiens, A2780, 96 h
  IC50: 23 nM

## COc1cc(F)ccc1-c1cc(Nc2cc(CS(C)(=N)=O)cc(C(F)(F)F)n2)ncc1F (racemic) [Example 21, (rac)-5-Fluoro-4-(4-fluoro-2-methoxyphenyl)-N-{4-[(S-methylsulfonimidoyl)methyl]-6-(trifluoromethyl)pyridin-2-yl}pyridin-2-amine]
[1]; Homo sapiens, A2780, 96 h
  IC50: 17 nM
[3]
  Papp A→B at 2 h, 2 µM: 5.1 ×10⁻⁶ cm/s
  Papp B→A at 2 h, 2 µM: 3.3 ×10⁻⁶ cm/s
  efflux ratio at 2 h, 2 µM: 0.64

## CCOc1cc(F)ccc1-c1cc(Nc2cc(CS(C)(=N)=O)cc(F)n2)ncc1F (racemic) [Example 26, (rac)-4-(2-Ethoxy-4-fluorophenyl)-5-fluoro-N-{6-fluoro-4-[(S-methylsulfonimidoyl)methyl]pyridin-2-yl}pyridin-2-amine]
[1]; Homo sapiens, A2780, 96 h
  IC50: 36 nM

## CCS(=N)(=O)Cc1ccnc(Nc2cc(-c3ccc(F)cc3OC)c(F)cn2)c1 (racemic) [Example 30, (rac)-N-{4-[(S-Ethylsulfonimidoyl)-methyl]pyridin-2-yl}-5-fluoro-4-(4-fluoro-2-methoxyphenyl)pyridin-2-amine]
[3]
  Papp A→B at 2 h, 2 µM: 18.6 ×10⁻⁶ cm/s
  Papp B→A at 2 h, 2 µM: 17.2 ×10⁻⁶ cm/s
  efflux ratio at 2 h, 2 µM: 0.92

## COc1cc(F)ccc1-c1cc(Nc2cc(CS(C)(=O)=NC#N)ccn2)ncc1F (single isomer, unassigned) [Example 10, {[(2-{[5-Fluoro-4-(4-fluoro-2-methoxyphenyl)pyridin-2-yl]amino}pyridin-4-yl)methyl](methyl)oxido-λ^6-sulfanylidene}cyanamide]
[2]
  solubility at 24 h: 102 µg/mL (≈ 238 µM)
[1]; Homo sapiens, A2780, 96 h
  IC50: 10 nM

## COc1cc(F)ccc1-c1cc(Nc2cc(CS(C)(=N)=O)ccn2)ncc1F (single isomer, unassigned; (+)) [Example 2, (+)-5-Fluoro-4-(4-fluoro-2-methoxyphenyl)-N-{4-[(S-methylsulfonimidoyl)methyl]pyridin-2-yl}pyridin-2-amine]
[1]
  IC50: 110 nM
[3]
  Papp A→B at 2 h, 2 µM: 16.6 ×10⁻⁶ cm/s
  Papp B→A at 2 h, 2 µM: 18.6 ×10⁻⁶ cm/s

## COc1cc(F)ccc1-c1cc(Nc2cc(CS(C)(=N)=O)cc(C)n2)ncc1F (single isomer, unassigned; (+)) [Example 32, (+)-5-Fluoro-4-(4-fluoro-2-methoxyphenyl)-N-{6-methyl-4-[(S-methylsulfonimidoyl)methyl]pyridin-2-yl}pyridin-2-amine]
[1]; Homo sapiens, A2780, 96 h
  IC50: 10 nM

## COc1cc(F)ccc1-c1cc(Nc2cc(CS(C)(=N)=O)ccn2)ncc1F (single isomer, unassigned; (-)) [Example 3, (−)-5-Fluoro-4-(4-fluoro-2-methoxyphenyl)-N-{4-[(S-methylsulfonimidoyl)methyl]pyridin-2-yl}pyridin-2-amine]
[2]
  solubility at 24 h: 699 µg/mL (≈ 1730 µM)
[1]
  IC50: 52 nM

## COc1cc(F)ccc1-c1cc(Nc2cc(CS(C)(=N)=O)cc(C(F)(F)F)n2)ncc1F (single isomer, unassigned; (-)) [Example 23, (−)-5-Fluoro-4-(4-fluoro-2-methoxyphenyl)-N-{4-[(S-methylsulfonimidoyl)methyl]-6-(trifluoromethyl)pyridin-2-yl}pyridin-2-amine]
[2]
  Solubility in aqueous Citrate buffer pH4: 45 mg/l
[1]
  IC50: 11 nM

## COc1cc(F)ccc1-c1cc(Nc2cc(CS(C)(=N)=O)ccn2)ncc1F.Cl (single isomer, unassigned; enantiomer 2) [Example 14, 5-Fluoro-4-(4-fluoro-2-methoxyphenyl)-N-{4-[(S-methylsulfonimidoyl)methyl]pyridin-2-yl}pyridin-2-amine hydrochloride; enantiomer 2]
[2]
  solubility at 24 h: 600 µg/mL
